The Deep4Chem optical property database
Where “and” joins values, the source holds several entries; their conditions need not be identical. Equal entries are not always repeated. One block for each compound: values may come before it.

Assay: solvent given as SMILES

SMILES: CCn1c2ccccc2c2cc(/C=C/c3cc(/C=C/c4ccc5c(c4)c4ccccc4n5CC)[n+](CCCS(=O)(=O)[O-])c(/C=C/c4ccc5c(c4)c4ccccc4n5CC)c3)ccc21
emission maximum (in C1CCOC1): 605 nm | emission maximum (in CC#N): 611 nm | emission maximum (in CC(C)=O): 610 nm | emission maximum (in Cc1ccccc1): 599 nm

SMILES: COc1ccc(-c2cc(-c3ccc(C#N)cc3)nn2C)cc1
emission maximum (in ClCCl): 384 nm

SMILES: Cc1ccc2c(c1)c1cc(Br)ccc1n2-c1c(C#N)c(-n2c3ccc(Br)cc3c3cc(Br)ccc32)c(-n2c3ccc(Br)cc3c3cc(Br)ccc32)c(C#N)c1-n1c2ccc(Br)cc2c2cc(Br)ccc21
emission maximum (in Cc1ccccc1): 546 nm

SMILES: CCCCC(CC)COc1cc(OCC(CC)CCCC)c2c#cc3ccc4sc5ccc(c#cc6cc(c#cc7ccc8sc9ccc(c#cc1c2)cc9c8c7)c(C(CCCC)OCCC)cc6C(CCCC)OCCC)cc5c4c3 (stereo not drawn)
emission maximum (in ClCCl): 377 nm

SMILES: Clc1ccccc1-c1nc2sc3ccccc3c2s1
emission maximum (in CS(C)=O): 412 nm

SMILES: CC1(C)Oc2c(c3nc4ccccc4nc3c3ccccc23)CC1Br (stereo not drawn)
emission maximum (in C1CCCCC1): 431.03 nm | emission maximum (in C1CCOC1): 448.83 nm | emission maximum (in C1COCCO1): 449.44 nm | emission maximum (in CC#N): 457.04 nm | emission maximum (in CC(C)O): 464.25 nm | emission maximum (in CCCCCC): 430.66 nm | emission maximum (in CN(C)C=O): 458.3 nm | emission maximum (in CO): 475.96 nm | emission maximum (in c1ccccc1): 444.25 nm

SMILES: Cc1ccc(N(CC(=O)[O-])CC(=O)[O-])c(OCCOc2cc3cc(-c4ncc(C(=O)[O-])o4)oc3cc2N(CC(=O)[O-])CC(=O)[O-])c1
emission maximum (in O): 500 nm

SMILES: COc1ccc(C#Cc2nc3ccccc3nc2-c2csc(OC)c2)cc1
emission maximum (in ClCCl): 508 nm

SMILES: CC(C)(C)OC(=O)/C=C/C1=CC2=C(c3ccccc3)c3cccn3[B-](F)(F)[N+]2=C1
emission maximum (in ClCCl): 575 nm

SMILES: CC(C)[Si](C#Cc1ccc(C#C[Si](C(C)C)(C(C)C)C(C)C)c2nc3c(nc12)C1c2ccccc2C3c2ccccc21)(C(C)C)C(C)C
emission maximum (in CCCCCC): 404 nm

SMILES: CC(C)(C)c1ccc2c(c1)c1cc(C(C)(C)C)ccc1n2-c1ccc2oc3nc4oc5ccc(C(F)(F)F)cc5c4cc3c2c1
emission maximum (in C1CCCCC1): 396 nm | emission maximum (in C1CCOC1): 455 nm | emission maximum (in CC#N): 513 nm | emission maximum (in CS(C)=O): 517 nm | emission maximum (in Cc1ccccc1): 422 nm | emission maximum (in ClC(Cl)Cl): 364 nm

SMILES: COc1cc(-c2cc(-c3ccc(C)cc3)nc3c(C#N)c(N4CCCC4)nc(N)c23)cc(OC)c1OC
emission maximum (in CC#N): 525 nm | emission maximum (in CC(C)=O): 521 nm | emission maximum (in CC(C)O): 513 nm | emission maximum (in CO): 526 nm | emission maximum (in ClC(Cl)Cl): 509 nm | emission maximum (in ClCCl): 515 nm | emission maximum (in c1ccccc1): 508 nm

SMILES: Cc1ccc(-c2cc3ccccc3oc2=O)cc1
emission maximum (in C1CCOC1): 410 nm | emission maximum (in CCCCCC): 425 nm | emission maximum (in CCO): 408 nm | emission maximum (in CS(C)=O): 409 nm

SMILES: Cn1nc(-c2ccccc2)c2nc3cc(F)ccc3nc21
emission maximum (in C1CCCCC1): 486 nm | emission maximum (in C1CCOC1): 520 nm | emission maximum (in CC#N): 535 nm

SMILES: CNc1ccc(/C=C/C(=O)OC)cc1
emission maximum (in O): 470 nm

SMILES: C[n+]1ccnc(/C=C/c2ccc(N(c3ccccc3)c3ccc(/C=C/c4c[n+](C)ccn4)cc3)cc2)c1
emission maximum (in CS(C)=O): 530 nm | emission maximum (in OCC(O)CO): 690 nm

SMILES: N#Cc1cc(C#Cc2c(F)c(F)nc(F)c2F)c(C#Cc2c(F)c(F)nc(F)c2F)cc1C#N
emission maximum (in CC#N): 370 nm

SMILES: O=c1c2cc(F)c(N3CCOCC3)cc2sc2cc(N3CCOCC3)c(F)cc12
emission maximum (in CCO): 481 nm

SMILES: COC(=O)C1=C(C(=O)OC)C2(c3ccccc3-c3c(Br)cc(Br)cc32)C2(/C=C/c3ccc(Cl)cc3)c3cc(OC)c(OC)cc3CCN12 (stereo not drawn)
emission maximum (in ClCCl): 520 nm

SMILES: C(S/C=C/c1ccc(/C=C/SC=C2CCCC2)cc1)=C1CCCC1
emission maximum (in ClCCl): 424 nm

SMILES: Cn1c(=O)c(/N=N/c2ccc(S(=O)(=O)O)c3ccccc23)c(O)c2ccccc21
emission maximum (in C1CCOC1): 548 nm | emission maximum (in CC(C)=O): 564 nm | emission maximum (in CCOC(C)=O): 555 nm | emission maximum (in CO): 562 nm | emission maximum (in CS(C)=O): 571 nm | emission maximum (in Cc1ccccc1): 540 nm | emission maximum (in ClCCl): 541 nm | emission maximum (in O): 582 nm

SMILES: CCCCNc1ccc2n1[B-](F)(F)[N+]1=CC(/C=C/C(=O)OC(C)(C)C)=CC1=C2c1c(C)cc(C)cc1C
emission maximum (in ClCCl): 546 nm

SMILES: CC1(C)C(/C=C/C2=C(Oc3ccc(CCN=C=S)cc3Cl)C(=C/C=C3/N(CCCS(=O)(=O)[O-])c4ccccc4C3(C)C)/CCC2)=[N+](CCCS(=O)(=O)[O-])c2ccccc21
emission maximum (in CO): 797 nm

SMILES: BrCCCCCCCCCCCCOc1cc2ccc3cccc4ccc(c1)c2c34
emission maximum (in Cc1ccccc1): 384 nm

SMILES: O=[N+]([O-])c1ccc(-n2c3ccccc3c3c2c2ccccc2n3-c2ccccc2)cc1
emission maximum (in Cc1ccccc1): 660 nm

SMILES: CN(C)c1ccc(-c2cc(=O)c3ccccc3o2)cc1
emission maximum (in C1CCCCC1): 382.35 nm | emission maximum (in CC#N): 474 nm and 462.75 nm | emission maximum (in CCOC(C)=O): 442 nm and 433.73 nm | emission maximum (in Cc1ccccc1): 417 nm

SMILES: c1ccc(-c2nc(-c3ccccc3)nc(-c3ccc(-n4c5ccccc5c5cc6c(cc54)C4c5ccccc5C6c5ccccc54)cc3)n2)cc1
emission maximum (in Cc1ccccc1): 432 nm | emission maximum (in O=P(c1ccccc1)(c1ccccc1)c1ccccc1Oc1ccccc1P(=O)(c1ccccc1)c1ccccc1): 457 nm

SMILES: N#Cc1cc(N2c3ccccc3Oc3ccccc32)cc(N2c3ccccc3Oc3ccccc32)c1
emission maximum (in Cc1ccccc1): 520 nm

SMILES: CN(C)c1ccc(C2=Nc3sc4ccccc4[n+]3[B-](F)(F)O2)cc1
emission maximum (in C1CCOC1): 469 nm | emission maximum (in CC#N): 486 nm | emission maximum (in CC(C)=O): 482 nm | emission maximum (in Cc1ccccc1): 450 nm | emission maximum (in ClCCl): 467 nm

SMILES: COc1ccc2c3c(c4ccc(C(C)(C)C)cc4c2c1)=C(c1cc(OC)c(OC)c(OC)c1)C1=Nc2c(-c4cc(OC)c(OC)c(OC)c4)c4c5ccc(C(C)(C)C)cc5c5cc(OC)ccc5c4n2[B-](F)(F)[N+]=31
emission maximum (in Cc1ccccc1): 810 nm

SMILES: COc1ccc(C2=C(c3ccc(OC)cc3)c3cccc4c5c(cc(c34)O2)=NC(C#N)C(C#N)N=5)cc1 (stereo not drawn)
emission maximum (in ClCCl): 632 nm

SMILES: CCCCC1=Cc2c3ccc4cccc5ccc(c6cc(-c7ccccc7)n(c26)P1(=O)c1ccccc1)c3c45 (stereo not drawn)
emission maximum (in C1CCCCC1): 452 nm | emission maximum (in C1CCOC1): 459 nm | emission maximum (in C1COCCO1): 460 nm | emission maximum (in CC#N): 459 nm | emission maximum (in CC(C)=O): 459 nm | emission maximum (in CO): 459 nm | emission maximum (in Cc1ccccc1): 460 nm | emission maximum (in ClC(Cl)Cl): 458 nm | emission maximum (in ClCCl): 459 nm

SMILES: O=C1/C(=C\c2ccc3oc4ccccc4c3c2)S(=O)(=O)c2ccccc21
emission maximum (in C1CCOC1): 437 nm | emission maximum (in C1COCCO1): 436 nm | emission maximum (in CC#N): 480 nm | emission maximum (in CC(C)=O): 458 nm | emission maximum (in CCOC(C)=O): 429 nm | emission maximum (in CN(C)C=O): 445 nm | emission maximum (in CO): 439 nm | emission maximum (in CS(C)=O): 449 nm | emission maximum (in Cc1ccccc1): 430 nm | emission maximum (in ClC(Cl)Cl): 441 nm | emission maximum (in ClCCl): 438 nm

SMILES: CCOC(=O)CCCCCn1c2ccc([N+](=O)[O-])cc2c(=O)c2cc3c(cc21)c(=O)c1cc([N+](=O)[O-])ccc1n3CCCCCC(=O)OCC
emission maximum (in ClCCl): 553 nm

SMILES: Cc1cccc(C)c1-c1cc2c(C)c3c4cc5nc6ccc7c8c(C)c9cc(-c%10c(C)cccc%10C)c(-c%10c(C)cccc%10C)cc9c(C)c8c7c6nc5cc4c3c(C)c2cc1-c1c(C)cccc1C
emission maximum (in ClC(Cl)Cl): 576 nm

The next lines start with the values.

emission maximum (in C1CCOC1): 535 nm | emission maximum (in CC#N): 596 nm | emission maximum (in CCCCCCC): 461 nm | emission maximum (in CS(C)=O): 598 nm | emission maximum (in ClCCl): 565 nm
SMILES: C(=C\c1cnc2ccccc2n1)/c1ccc(N(c2ccccc2)c2ccccc2)cc1

emission maximum (in ClCCl): 490 nm
SMILES: c1ccc(-c2nc(-c3ccc(N4c5ccccc5Sc5ccccc54)cc3)nn2-c2ccc(N3c4ccccc4Sc4ccccc43)cc2)nc1

emission maximum (in ClCCl): 444 nm
SMILES: CCCCn1c(-c2ccc(-c3nnc(-c4cccs4)o3)cc2)nc(-c2ccccc2)c1-c1ccccc1

emission maximum (in CO): 510 nm
SMILES: c1ccc(N(c2ccccc2)c2ccc(-c3ncc(-c4cnc(-c5ccc(N(c6ccccc6)c6ccccc6)cc5)s4)s3)cc2)cc1

emission maximum (in ClCCl): 540 nm
SMILES: C(=C\c1cc(/C=C/c2ccc(N(c3ccccc3)c3ccccc3)cc2)ncn1)/c1ccc(N(c2ccccc2)c2ccccc2)cc1

emission maximum (in ClCCl): 481 nm
SMILES: CCOC(=O)c1ccc(C2CC(c3cccc4ccccc34)=NN2c2ccc(F)cc2)cc1 (stereo not drawn)

emission maximum (in CC#N): 498 nm | emission maximum (in CO): 521 nm
SMILES: O=C1c2ccccc2-c2c(-c3ccccc3)c(-c3ccccc3)c(-c3ccccc3)c3cccc1c23

emission maximum (in C1CCOC1): 416 nm | emission maximum (in ClC(Cl)Cl): 434 nm
SMILES: F[Si](c1c2ccccc2cc2ccccc12)(c1c2ccccc2cc2ccccc12)c1c2ccccc2cc2ccccc12

emission maximum (in CC#N): 485 nm
SMILES: O=C(O)c1ccc(-c2ccc(-c3nc(-c4ccccc4)c4ccccn34)cc2)s1

emission maximum (in ClCCl): 475 nm
SMILES: C(=C\c1ccc(-c2cccc3ccccc23)s1)/c1ccc(-c2cccc3ccccc23)s1

emission maximum (in CO): 607 nm | emission maximum (in ClC(Cl)Cl): 638 nm
SMILES: Cc1nc2c(ccc3c2sc(/C=C/c2ccc(-n4c5ccccc5c5ccccc54)cc2)[n+]3C)s1

emission maximum (in ClC(Cl)Cl): 690 nm
SMILES: c1ccc(N(c2ccccc2)c2ccc(-c3ccc(-c4ccc(-c5ccc(-c6ccc(N(c7ccccc7)c7ccccc7)cc6)s5)c5nsnc45)s3)cc2)cc1

emission maximum (in ClCCl): 452 nm
SMILES: COc1ccc(-c2c3ccccc3c(C#Cc3ccccc3)c3ccccc23)cc1

emission maximum (in CC1CCCO1): 333 nm
SMILES: c1ccc2c(c1)-c1ccccc1C21c2ccccc2-c2ncccc21

emission maximum (in C1CCOC1): 446 nm
SMILES: C(=C(c1ccccc1)c1ccccc1)c1ccc(-c2cc(-c3ccc(C=C(c4ccccc4)c4ccccc4)cc3)cc(-c3ccc(C=C(c4ccccc4)c4ccccc4)cc3)c2)cc1

emission maximum (in ClC(Cl)Cl): 418 nm
SMILES: CCCCn1c2ccc(-c3ccc4ccccc4c3)cc2c2ccc3c4cc(-c5ccc6ccccc6c5)ccc4n(CCCC)c3c21

emission maximum (in ClCCl): 471 nm
SMILES: COc1ccc2ccccc2c1C1=CC(c2ccccc2)=C(c2ccccc2)C1

emission maximum (in ClC(Cl)Cl): 553 nm
SMILES: Oc1cccc(C2=[N+]3C(=C(c4ccccc4)c4cccn4[B-]3(F)F)C=C2)c1

emission maximum (in ClCCl): 560 nm
SMILES: N#Cc1cc(/C=C/c2ccc(N(c3ccccc3)c3ccccc3)cc2)ccc1/C=C/c1ccc(/C=C/c2ccc(N(c3ccccc3)c3ccccc3)cc2)cc1

emission maximum (in ClCCl): 491 nm
SMILES: C1=C(c2ccccc2)S[C@]23C1=C(c1ccccc1)[C@H](c1ccccc12)c1ccccc13
